Changes are numbered by the printed parent chain.

For one experiment, the system named is MV4-11. Kind of experiment: Cell proliferation inhibition in AML cell line MV4-11 (Alamar Blue). It counts as cell-based. The note with it: Homo sapiens, MV4-11, 72 hours, read-out: Cell proliferation inhibitory activity (GI50) MV4-11. An excerpt: Cell proliferation inhibition experiments on acute myeloid leukemia (AML) cell lines tested FLT3 inhibitory activity using MV4-11, Molm-13, and Molm-14 cells, which are FLT3-ITD-expressed AML cell lines. The origin of all cell lines is human-derived cell lines, and the place of purchase and culture conditions of each cell line are as follows.
MV4-11 cells were purchased form the American Type Culture Collection (ATCC, Rockville, MD, USA, cat #CRL-9591), Molm-13 (DSMZ, cat #ACC554), Molm-14 (DSMZ, cat #ACC777), and then cultured in RPMI 1640 medium (Corning Co. 10-040-CV) supplemented with 10% fetal bovine serum, 1% penicillin/streptomycin and 4 mM L-glutamine (Life Technology, GrandIsland, NY).
Cell viability was evaluated by Resazurin redox-based analysis method with Alamar Blue Assay Kit (Invitrogen, USA). Specifically, for MV4-11, Molm-13 and Molm-14 cells, 8000 cells were plated on 384-well plates in 45 μl of medium. Compounds were treated with dimethyl sulfoxide (DMSO) as a negative control group. After 3 days (72 hours) of compound addition, 5 μl of Alamar Blue kit reagent was added to each well of 384-well plate and incubated at 37° C. for 2 hours in a humidified CO2 incubator. After incubation, fluorescence density (Flu) was measured at a wavelength of 544 nm and 590 nm using SpectraMax iD3 Multi Mode Microplate Reader (Molecular Devices, ID3-STD). GI50 was calculated by nonlinear regression using Prism version 5.01 (GraphPad, LaJolla, CA, USA).
In general terms: Resazurin is reduced to fluorescent resorufin, in cell work by metabolically active cells.

For the next experiment, the target named is T1, RET M918T (Homo sapiens, UniProt P07949, M918T).
T1 construct: Recombinant proteins containing RET wt, RET (M918T) and RET (V804L) domains were purchased from Promega; purchased Promega VA7274
T1 sequence (P07949 724-1016 M918T limits assumed): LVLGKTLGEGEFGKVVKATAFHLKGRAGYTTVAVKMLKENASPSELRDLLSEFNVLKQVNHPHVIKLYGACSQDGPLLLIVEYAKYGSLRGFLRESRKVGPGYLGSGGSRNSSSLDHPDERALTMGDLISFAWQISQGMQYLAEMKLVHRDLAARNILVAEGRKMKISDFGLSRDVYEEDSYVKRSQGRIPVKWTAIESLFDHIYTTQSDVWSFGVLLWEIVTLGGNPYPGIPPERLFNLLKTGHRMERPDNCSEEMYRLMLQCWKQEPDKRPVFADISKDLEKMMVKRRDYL
Kind of experiment: ADP-Glo kinase assay, RET M918T. It counts as biochemical. To be noted: recombinant RET (M918T), 120 min room temperature, read-out: Enzyme activity (IC50, nM) RET M918T. The protocol: (§1) Analysis performed in two steps. First, after kinase reaction, ADP-Glo™ reagent of equal volume was added to finish kinase reaction, and then the rest ATP was exhausted. Second, Kinase Detection Reagent was added to convert ADP to ATP and newly synthesized ATP was measured by luciferase/luciferin reaction at the same time. Generated light was measured by using luminometer. The measured luminescence amount can be applied to the ATP→ADP standard conversion curve to confirm the correlation with the ADP concentration.
(§2) Recombinant proteins containing RET wt, RET (M918T) and RET (V804L) domains were purchased from Promega (cat #V8061, cat #VA7274, cat #V4473), respectively. According to the manufacturer's instructions, optimal enzyme, ATP, and substrate concentration were established using ADP-Glo™ Kinase Assay (Promega, USA). […] Then, ADP-Glo™ Reagent (5 μl) was added and reacted at room temperature for further 40 min. Lastly, Kinase Detection Reagent (10 μl) was added and reacted for 30 min more at room temperature, and then phosphorylation of substrate peptide was measured by measuring luciferase signal (Integration time 0.5-1 second) using SpectraMax ID5 reader (Molecular Devices LLC., San Jose, CA, USA). IC50 was calculated by nonlinear regression using Prism version 5.01 (GrapghPad).
(In general: ADP-Glo first removes unused ATP, then detects ADP through luciferase.)

A further experiment concerns the target T2, RET WT (Homo sapiens, UniProt P07949).
T2 construct: Recombinant proteins containing RET wt, RET (M918T) and RET (V804L) domains were purchased from Promega; purchased Promega V8061
T2 sequence (P07949 724-1016 limits assumed): T1 sequence (P07949 724-1016 M918T limits assumed) with T195M
Kind of experiment: ADP-Glo kinase assay, RET WT. The note with it: recombinant RET wt, 120 min room temperature, read-out: Enzyme activity (IC50, nM) RET WT. It counts as biochemical. The protocol: as §1, §2

The target in a further experiment is T3, RET V804L (Homo sapiens, UniProt P07949, V804L).
T3 construct: Recombinant proteins containing RET wt, RET (M918T) and RET (V804L) domains were purchased from Promega; purchased Promega V4473
T3 sequence (P07949 724-1016 V804L limits assumed): T1 sequence (P07949 724-1016 M918T limits assumed) with V81L, T195M
Kind of experiment: ADP-Glo kinase assay, RET V804L. It counts as biochemical. The note with it: recombinant RET (V804L), 120 min room temperature, read-out: Enzyme activity (IC50, nM) RET V804L. On the procedure: as §1, §2

`O=C1Nc2ccccc2/C1=C1/Nc2ccccc2/C1=N\OCC(=O)N1C[C@H]2C[C@@H]1CN2` [Example 17, (2Z,3E)-3-((2-((1R,4R)-2,5-diazabicyclo[2.2.1]heptan-2-yl)-2-oxoethoxy)imino)-[2,3′-biindolinylidene]-2′-one]: the GI50 in the experiment on MV4-11 stood at 0.44 nM. The IC50 (usually the concentration at which inhibition is half-maximal) on RET M918T came to 1.44 nM; at RET WT, 1.53 nM; on RET V804L, 0.904 nM.

With `O=C1Nc2ccc(F)cc2/C1=C1/Nc2ccccc2/C1=N\OCC(=O)N1CC2(CNC2)C1` [Example 18, (2Z,3E)-5′-fluoro-3-((2-oxo-2-(2,6-diazaspiro[3.3]heptan-2-yl)ethoxy)imino)-[2,3′-biindolinylidene]-2′-one], in the experiment on MV4-11, the GI50 stood at 100 nM. The IC50 at RET M918T turned out to be 0.921 nM; on RET WT, 1.12 nM; on RET V804L, 0.657 nM.

With `O=C(CO/N=C1/C(=C2/C(=O)Nc3ccc(F)cc32)Nc2ccccc21)N[C@H]1[C@@H]2CNC[C@@H]21` [Example 19, N-((1R,5S,6s)-3-azabicyclo[3.1.0]hexan-6-yl)-2-(((E)-((Z)-5′-fluoro-2′-oxo-[2,3′-biindolinylidene]-3-ylidene)amino)oxy)acetamide], the GI50 in the experiment on MV4-11 worked out at 6.78 nM. Also, the results for the IC50 at RET M918T, at RET WT and on RET V804L were 1.39 nM, 1.05 nM and 0.419 nM, respectively.

Turning to `O=C1Nc2ccc(F)cc2/C1=C1/Nc2ccccc2/C1=N\OCC(=O)N1C[C@H]2C[C@@H]1CN2` [Example 20, (2Z,3E)-3-((2-((1R,4R)-2,5-diazabicyclo[2.2.1]heptan-2-yl)-2-oxoethoxy)imino)-5′-fluoro-[2,3′-biindolinylidene]-2′-one], the GI50 with MV4-11 was determined as 1.32 nM. Moreover, the IC50 came out at 1.19 nM on RET M918T, 1.88 nM at RET WT and 1.04 nM at RET V804L.
